From ChEMBL document CHEMBL5614367, “Hydroxamic acid hybrids: Histone deacetylase inhibitors with anticancer therapeutic potency” (Eur J Med Chem, 2023)
One block for each compound: values may come before it.

Tests used:
[1] = target: T1, Protein deacetylase HDAC6 (Homo sapiens, UniProt Q9UBN7); experiment: Inhibition of HDAC6 (unknown origin)
T1 sequence (Q9UBN7 whole entry): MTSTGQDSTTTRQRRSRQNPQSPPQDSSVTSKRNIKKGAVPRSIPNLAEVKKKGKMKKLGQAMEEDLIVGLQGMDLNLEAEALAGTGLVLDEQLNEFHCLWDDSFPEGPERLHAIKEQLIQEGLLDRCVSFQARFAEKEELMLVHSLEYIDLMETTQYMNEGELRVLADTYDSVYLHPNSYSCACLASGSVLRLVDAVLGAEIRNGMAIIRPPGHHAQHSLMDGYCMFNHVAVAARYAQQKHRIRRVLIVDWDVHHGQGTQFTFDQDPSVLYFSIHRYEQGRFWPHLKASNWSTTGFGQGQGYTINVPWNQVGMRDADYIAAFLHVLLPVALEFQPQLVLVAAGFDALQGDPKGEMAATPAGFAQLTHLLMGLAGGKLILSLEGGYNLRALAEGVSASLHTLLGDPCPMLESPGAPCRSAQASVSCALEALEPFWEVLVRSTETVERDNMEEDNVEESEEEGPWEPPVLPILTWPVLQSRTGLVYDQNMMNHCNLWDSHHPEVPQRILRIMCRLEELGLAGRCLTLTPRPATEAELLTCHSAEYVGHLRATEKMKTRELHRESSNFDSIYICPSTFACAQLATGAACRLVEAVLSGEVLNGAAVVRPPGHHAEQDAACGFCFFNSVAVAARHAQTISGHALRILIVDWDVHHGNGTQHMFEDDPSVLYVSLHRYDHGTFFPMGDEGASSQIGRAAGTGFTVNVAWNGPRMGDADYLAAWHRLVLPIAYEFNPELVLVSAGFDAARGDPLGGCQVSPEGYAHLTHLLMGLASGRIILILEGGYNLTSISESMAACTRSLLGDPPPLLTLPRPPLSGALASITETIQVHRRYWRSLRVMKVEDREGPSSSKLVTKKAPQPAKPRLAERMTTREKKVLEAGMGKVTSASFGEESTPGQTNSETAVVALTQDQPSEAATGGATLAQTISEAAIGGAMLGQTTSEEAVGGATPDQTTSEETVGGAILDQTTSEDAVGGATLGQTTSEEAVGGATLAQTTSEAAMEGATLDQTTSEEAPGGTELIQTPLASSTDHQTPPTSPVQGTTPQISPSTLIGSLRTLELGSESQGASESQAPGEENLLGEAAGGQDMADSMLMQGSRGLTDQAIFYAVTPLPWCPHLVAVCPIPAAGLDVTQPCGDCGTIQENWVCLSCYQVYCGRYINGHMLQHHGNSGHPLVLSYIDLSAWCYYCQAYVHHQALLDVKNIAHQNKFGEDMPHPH

[2] = target: T2, Histone deacetylase 1 (Homo sapiens, UniProt Q13547); experiment: Inhibition of HDAC1 (unknown origin)
T2 sequence (Q13547 whole entry): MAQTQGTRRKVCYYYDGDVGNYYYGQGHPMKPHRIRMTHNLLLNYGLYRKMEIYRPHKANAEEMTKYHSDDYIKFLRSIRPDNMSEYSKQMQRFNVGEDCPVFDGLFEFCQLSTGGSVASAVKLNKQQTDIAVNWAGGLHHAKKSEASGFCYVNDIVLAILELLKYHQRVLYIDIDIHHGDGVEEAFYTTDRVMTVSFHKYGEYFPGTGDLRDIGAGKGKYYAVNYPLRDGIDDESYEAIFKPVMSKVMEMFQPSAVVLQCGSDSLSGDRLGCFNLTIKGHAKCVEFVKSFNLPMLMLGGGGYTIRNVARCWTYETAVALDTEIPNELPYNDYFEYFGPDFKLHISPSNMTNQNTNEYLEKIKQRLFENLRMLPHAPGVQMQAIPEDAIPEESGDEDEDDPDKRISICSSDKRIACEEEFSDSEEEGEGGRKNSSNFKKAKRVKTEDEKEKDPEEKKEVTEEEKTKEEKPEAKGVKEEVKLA

[3] = system: K562; experiment: Antiproliferative activity against human K562 cells by MTT assay; assay type: functional, cell-based
[4] = system: U-937; experiment: Antiproliferative activity against human U-937 cells by MTT assay; assay type: functional, cell-based
[5] = system: HCT-116; experiment: Antiproliferative activity against human HCT-116 cells by MTT assay; assay type: functional, cell-based
[6] = target: DNA (cytosine-5)-methyltransferase 1 (Homo sapiens, UniProt P26358); experiment: Inhibition of DNMT1 (unknown origin)
Chain of DNA (cytosine-5)-methyltransferase 1 (P26358 whole entry): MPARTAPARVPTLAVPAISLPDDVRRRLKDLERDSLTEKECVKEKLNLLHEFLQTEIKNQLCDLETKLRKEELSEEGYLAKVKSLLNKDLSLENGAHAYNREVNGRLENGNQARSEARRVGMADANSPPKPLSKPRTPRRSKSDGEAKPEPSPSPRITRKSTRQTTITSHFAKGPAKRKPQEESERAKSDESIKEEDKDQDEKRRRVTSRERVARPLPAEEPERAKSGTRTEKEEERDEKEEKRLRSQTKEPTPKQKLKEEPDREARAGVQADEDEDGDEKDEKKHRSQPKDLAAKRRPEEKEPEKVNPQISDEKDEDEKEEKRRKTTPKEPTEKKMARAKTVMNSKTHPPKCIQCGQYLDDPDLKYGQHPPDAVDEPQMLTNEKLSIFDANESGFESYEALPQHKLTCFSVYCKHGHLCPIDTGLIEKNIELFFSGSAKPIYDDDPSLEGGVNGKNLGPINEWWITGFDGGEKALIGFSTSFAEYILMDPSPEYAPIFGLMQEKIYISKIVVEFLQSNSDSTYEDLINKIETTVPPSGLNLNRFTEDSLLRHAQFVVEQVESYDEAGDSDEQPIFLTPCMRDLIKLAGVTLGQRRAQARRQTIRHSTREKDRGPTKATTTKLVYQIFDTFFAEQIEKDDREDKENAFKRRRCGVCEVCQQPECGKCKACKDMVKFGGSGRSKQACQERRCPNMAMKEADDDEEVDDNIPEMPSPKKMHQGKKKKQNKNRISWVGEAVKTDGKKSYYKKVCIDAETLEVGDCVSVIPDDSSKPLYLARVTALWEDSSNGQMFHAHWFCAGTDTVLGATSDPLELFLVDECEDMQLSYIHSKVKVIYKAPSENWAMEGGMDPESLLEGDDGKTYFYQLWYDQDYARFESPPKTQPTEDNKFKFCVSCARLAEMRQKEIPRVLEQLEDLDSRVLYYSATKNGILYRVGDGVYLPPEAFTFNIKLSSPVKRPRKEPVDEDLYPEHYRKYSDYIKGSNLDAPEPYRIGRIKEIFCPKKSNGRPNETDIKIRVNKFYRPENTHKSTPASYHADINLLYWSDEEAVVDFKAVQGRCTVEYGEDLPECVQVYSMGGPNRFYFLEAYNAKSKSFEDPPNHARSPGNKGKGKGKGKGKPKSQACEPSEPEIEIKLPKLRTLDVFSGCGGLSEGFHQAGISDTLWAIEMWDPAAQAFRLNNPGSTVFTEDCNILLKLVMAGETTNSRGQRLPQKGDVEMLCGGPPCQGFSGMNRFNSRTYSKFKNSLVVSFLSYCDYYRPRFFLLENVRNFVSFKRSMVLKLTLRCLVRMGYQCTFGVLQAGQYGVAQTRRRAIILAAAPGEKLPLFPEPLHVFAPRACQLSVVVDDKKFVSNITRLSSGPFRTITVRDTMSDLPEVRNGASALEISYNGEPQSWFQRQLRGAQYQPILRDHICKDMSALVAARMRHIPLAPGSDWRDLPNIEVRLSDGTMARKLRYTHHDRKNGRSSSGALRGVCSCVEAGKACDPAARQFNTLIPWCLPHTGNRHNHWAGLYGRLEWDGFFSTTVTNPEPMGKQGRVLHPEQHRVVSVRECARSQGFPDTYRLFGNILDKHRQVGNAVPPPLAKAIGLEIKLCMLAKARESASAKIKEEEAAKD

[7] = Metabolic stability in rat liver microsomes assessed as half life; assay type: ADME, Microsome
[8] = target: Cytochrome P450 2D6 (Homo sapiens, UniProt P10635); experiment: Inhibition of CYP2D6 in human liver microsomes; assay type: ADME, Microsome
Chain of Cytochrome P450 2D6 (P10635 whole entry): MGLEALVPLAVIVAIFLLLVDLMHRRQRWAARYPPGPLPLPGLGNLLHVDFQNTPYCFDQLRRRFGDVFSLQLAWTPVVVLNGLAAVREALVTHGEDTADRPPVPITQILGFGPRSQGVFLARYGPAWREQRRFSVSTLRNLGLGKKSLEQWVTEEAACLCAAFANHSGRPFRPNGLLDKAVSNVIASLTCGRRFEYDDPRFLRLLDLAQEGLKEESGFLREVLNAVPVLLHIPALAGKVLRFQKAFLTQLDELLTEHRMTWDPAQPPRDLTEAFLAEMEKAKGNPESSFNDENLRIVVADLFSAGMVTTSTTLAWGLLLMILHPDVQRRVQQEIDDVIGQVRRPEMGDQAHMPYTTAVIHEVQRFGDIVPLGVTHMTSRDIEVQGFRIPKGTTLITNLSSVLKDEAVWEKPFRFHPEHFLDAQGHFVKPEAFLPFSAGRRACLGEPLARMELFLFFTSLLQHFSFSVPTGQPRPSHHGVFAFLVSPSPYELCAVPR

[9] = system: SW-620; experiment: Antiproliferative activity against human SW620 cells incubated for 48 hrs by colorimetric method; assay type: functional, cell-based; details: SW-620, 48 h
[10] = system: PC-3; experiment: Antiproliferative activity against human PC-3 cells incubated for 48 hrs by colorimetric method; assay type: functional, cell-based; details: PC-3, 48 h
[11] = system: NCI-H23; experiment: Antiproliferative activity against human NCI-H23 cells incubated for 48 hrs by colorimetric method; assay type: functional, cell-based; details: NCI-H23, 48 h
[12] = target: T1, Protein deacetylase HDAC6; experiment: Inhibition of HDAC6 (unknown origin) incubated for 30 mins in presence of fluorimetric assay
[13] = system: HCT-116; experiment: cells; assay type: functional, cell-based; details: Homo sapiens, HCT-116, 72 h
[14] = system: HCT 116 TP53(-/-); experiment: cells; assay type: functional, cell-based; details: Homo sapiens, 72 h
[15] = system: 518A2; experiment: cells; assay type: functional, cell-based; details: Homo sapiens, 518A2, 72 h
[16] = system: Huh-7; experiment: cells; assay type: functional, cell-based; details: Homo sapiens, Huh-7, 72 h
[17] = system: HepG2; experiment: cells; assay type: functional, cell-based; details: Homo sapiens, HepG2, 72 h
[18] = Cytotoxicity against human L02 cells; assay type: toxicity, cell-based
[19] = Cytotoxicity against human BEAS-2B cells; assay type: toxicity, cell-based
[20] = system: K562; experiment: Antiproliferative activity against human K562 cells assessed as cell growth inhibition by SRB assay; assay type: functional
[21] = system: A549; experiment: Antiproliferative activity against human A549 cells assessed as cell growth inhibition by SRB assay; assay type: functional
[22] = system: MCF7; experiment: Antiproliferative activity against human MCF7 cells assessed as cell growth inhibition by SRB assay; assay type: functional
[23] = system: HeLa; experiment: Antiproliferative activity against human HeLa cells assessed as cell growth inhibition by SRB assay; assay type: functional
[24] = target: T2, Histone deacetylase 1; experiment: Inhibition of HDAC1 in human HeLa cells incubated for 72 hrs by ELISA; assay type: cell-based
[25] = target: T1, Protein deacetylase HDAC6; experiment: Inhibition of HDAC6 in human HeLa cells incubated for 72 hrs by ELISA; assay type: cell-based
[26] = system: U-87 MG; experiment: Antiproliferative activity against human U-87 MG cells; assay type: functional, cell-based, U-87MG ATCC
[27] = system: SCC-25; experiment: Antiproliferative activity against human SCC-25 cells; assay type: functional, cell-based
[28] = Cytotoxicity against HEK293T cells; assay type: toxicity, cell-based, HEK-293T; details: human
[29] = system: MCF7; experiment: cells; details: Homo sapiens
[30] = system: KYSE-450; experiment: Antiproliferative activity against human KYSE-450 cells; assay type: functional, cell-based
[31] = system: MGC-803; experiment: Antiproliferative activity against human MGC-803 cells; assay type: functional, cell-based
[32] = system: BGC-823; experiment: Antiproliferative activity against human BGC-823 cells; assay type: functional, cell-based
[33] = system: HGC-27; experiment: Antiproliferative activity against human HGC-27 cells; assay type: functional, cell-based
[34] = system: MGC-803; experiment: Antitumor activity against human MGC-803 cells xenografted in mouse assessed as tumor growth inhibition at 20 mg/kg relative to control; assay type: functional; details: read-out: TGI
[35] = system: KYSE-450; experiment: Potency index, ratio of vorinostat IC50 to test compound IC50 for antiproliferative activity against human KYSE-450 cells; assay type: functional
[36] = system: HCT-116; experiment: Potency index, ratio of vorinostat IC50 to test compound IC50 for antiproliferative activity against human HCT-116 cells; assay type: functional
[37] = system: KYSE-450; experiment: Potency index, ratio of TAE-226 IC50 to test compound IC50 for antiproliferative activity against human KYSE-450 cells; assay type: functional
[38] = system: HCT-116; experiment: Potency index, ratio of TAE-226 IC50 to test compound IC50 for antiproliferative activity against human HCT-116 cells; assay type: functional
[39] = target: Focal adhesion kinase 1 (Homo sapiens, UniProt Q05397); experiment: Inhibition of FAK (unknown origin)
Chain of Focal adhesion kinase 1 (Q05397 whole entry): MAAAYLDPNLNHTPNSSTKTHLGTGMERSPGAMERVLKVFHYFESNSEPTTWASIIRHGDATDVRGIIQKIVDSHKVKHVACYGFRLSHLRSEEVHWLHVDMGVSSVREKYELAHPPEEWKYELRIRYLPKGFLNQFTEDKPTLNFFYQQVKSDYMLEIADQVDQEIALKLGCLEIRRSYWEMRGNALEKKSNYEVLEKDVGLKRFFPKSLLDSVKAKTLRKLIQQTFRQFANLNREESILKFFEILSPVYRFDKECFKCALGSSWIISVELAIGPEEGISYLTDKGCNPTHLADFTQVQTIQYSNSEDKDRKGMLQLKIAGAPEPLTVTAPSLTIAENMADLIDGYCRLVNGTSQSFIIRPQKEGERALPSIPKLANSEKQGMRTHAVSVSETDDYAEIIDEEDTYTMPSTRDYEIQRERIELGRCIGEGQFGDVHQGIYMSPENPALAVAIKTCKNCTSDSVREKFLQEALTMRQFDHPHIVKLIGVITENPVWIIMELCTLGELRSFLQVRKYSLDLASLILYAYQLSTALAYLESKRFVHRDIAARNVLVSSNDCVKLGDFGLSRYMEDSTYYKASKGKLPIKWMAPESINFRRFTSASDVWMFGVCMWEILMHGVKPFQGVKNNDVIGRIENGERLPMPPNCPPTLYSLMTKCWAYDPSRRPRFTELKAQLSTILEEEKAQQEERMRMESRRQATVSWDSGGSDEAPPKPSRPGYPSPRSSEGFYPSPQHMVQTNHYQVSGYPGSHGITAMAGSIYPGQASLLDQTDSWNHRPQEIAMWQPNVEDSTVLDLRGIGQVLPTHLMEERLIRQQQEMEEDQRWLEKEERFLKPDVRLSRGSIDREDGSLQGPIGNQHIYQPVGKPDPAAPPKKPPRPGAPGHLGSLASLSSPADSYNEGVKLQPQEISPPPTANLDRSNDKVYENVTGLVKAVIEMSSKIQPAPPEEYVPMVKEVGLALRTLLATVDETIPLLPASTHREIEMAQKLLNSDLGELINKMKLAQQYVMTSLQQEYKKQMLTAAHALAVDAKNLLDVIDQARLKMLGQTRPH

[40] = system: HCT-116; experiment: cells; details: Homo sapiens

IC50 [1]: 0.00837 µM
IC50 [2]: 0.00268 µM
IC50 [3]: 7.1 µM
IC50 [4]: 7.1 µM
IC50 [5]: 7.1 µM
IC50 [6]: 6.39 µM
half-life [7]: 6.08 h
IC50 [8]: 8.7 µM
Structure (SMILES): Nc1ccn(Cc2ccc(-c3cn(CCCCCCC(=O)NO)nn3)cc2)c(=O)n1

IC50 [9]: 0.67 µM
IC50 [10]: 0.67 µM
IC50 [11]: 0.67 µM
IC50 [12]: 0.047 µM
Structure (SMILES): O=C(/C=C/c1ccc2c(=O)n(Cc3ccc(Cl)cc3)cnc2c1)NO

Structure (SMILES): COc1ccc(-c2ocnc2-c2cc(OC)c(OC)c(OC)c2)cc1OCCCCCC(=O)NO
IC50 [1]: ~1 µM
IC50 [13]: 0.61 µM
IC50 [14]: 0.61 µM
IC50 [15]: 0.61 µM
IC50 [16]: 0.61 µM
IC50 [17]: 0.61 µM

Structure (SMILES): CCCOc1ccc2c(OCCCCCCCC(=O)NO)cc(=O)oc2c1
IC50 [18]: > 50 µM
IC50 [19]: > 50 µM

GI50 [20]: < 10 µM
GI50 [21]: < 10 µM
GI50 [22]: < 10 µM
GI50 [23]: < 10 µM
IC50 [24]: 0.052 µM
IC50 [25]: 0.052 µM
Structure (SMILES): CC(=O)c1c(-c2ccc([N+](=O)[O-])cc2)cn(CCCCCC(=O)NO)c1C

IC50 [1]: 0.0087 µM
IC50 [26]: 4.01 µM
IC50 [29]: 4.01 µM
Structure (SMILES): COc1ccc(-c2ccc(C(=O)N3CCc4c(cc(Cl)c(C(=O)NO)c4Cl)C3)cc2)cc1
IC50 [27]: 4.01 µM
IC50 [28]: 51.2 µM

Structure (SMILES): COCCOc1ccc2c(OCCCCCCCC(=O)NO)cc(=O)oc2c1
IC50 [18]: > 50 µM
IC50 [19]: > 50 µM

IC50 [31]: 0.0039 µM
IC50 [32]: 0.0154 µM
IC50 [1]: 0.016 µM
IC50 [39]: 0.132 µM
IC50 [40]: 0.182 µM
Structure (SMILES): CNC(=O)c1ccccc1Nc1nc(Nc2ccc(NC(=O)CCCCCCC(=O)NO)cc2)ncc1Cl
IC50 [30]: 0.182 µM
IC50 [33]: 0.0184 µM
inhibition in vivo at 20 mg/kg [34]: 53.5%
Ratio IC50 [35]: 2.8
Ratio IC50 [36]: 2.8
Ratio IC50 [37]: 2.8
Ratio IC50 [38]: 2.8
